The results in this text go back to ChEMBL document CHEMBL5338793, “Discovery of Pyrimidinediamine Derivatives as Potent Methuosis Inducers for the Treatment of Triple-Negative Breast Cancer” (J Med Chem, 2023).

Data set [1] deals with HCC1806. The experiment in a line: Antiproliferative activity against human HCC1806 cells assessed as inhibition of cell proliferation incubated for 24 hrs by SRB assay. Format: functional, cell-based. To be noted: HCC1806, 24 h. (Sulforhodamine B stains cellular protein and so reports cell mass.)
For data set [2], the system named is HCC1806. The experiment in a line: Antiproliferative activity against human HCC1806 cells assessed as inhibition of cell proliferation at 1 uM incubated for 24 hrs by SRB assay relative to control. The class given is functional.
Data set [3] has as its system 184B5. The experiment in a line: Cytotoxicity against human 184B5 cells assessed as reduction in cell viability at 2 uM incubated for 24 hrs by SRB assay. To be noted: 184b5, 24 h. Format: toxicity, cell-based.
Data set [4] relates to HCC1806. The experiment in a line: Antiproliferative activity against human HCC1806 cells assessed as inhibition of cell proliferation at 2 uM incubated for 24 hrs by SRB assay relative to control. The class given is functional.
The test system of data set [5] is HCC1806. The experiment in a line: Induction of morphological changes in human HCC1806 cells assessed as rate of intracellular vacuolization at 1 uM incubated for 24 hrs by microscopic analysis relative to control. Format: functional.

A word on the IC50: it is the concentration at which inhibition is half-maximal. By inhibition is commonly meant the change of the read-out against control, counted positive when it falls. On to `COc1cnc(N2CCNCC2)nc1Nc1ccc(NC(=O)c2cccc(Br)n2)cc1C#N`, for which, in data set [1], the IC50 was 890 nM. Moreover, the inhibition at 1 µM in data set [2] was 99%. Moreover, the results for the Activity result in data set [3] and in data set [5] were “Toxic” and 39.5%, respectively. Besides, the inhibition at 2 µM in data set [4] amounted to 12.6%. Regarding `COc1cnc(N2CCNCC2)nc1Nc1ccc(NC(=O)c2cccc(Br)c2)cc1C(F)(F)F`, the inhibition at 1 µM in data set [2] is 8.87%.

As to `COc1cnc(N2CCNCC2)nc1Nc1ccc(NC(=O)c2cccc(Br)n2)cc1`, the inhibition at 1 µM in data set [2] was determined as 17.4%. On the same count and under the same terms, the same measure for `COc1cnc(N2CCNCC2)nc1Nc1ccc(NC(=O)c2ccccn2)cc1C(F)(F)F`: 4.52%; for `COc1cnc(N2CCNCC2)nc1Nc1ccc(NC(=O)c2ccc3ccccc3n2)cc1C(F)(F)F`: 13.3%. On to `COc1cnc(N2CCNCC2)nc1Nc1ccc(NC(=O)c2ccncn2)cc1C(F)(F)F`, for which the inhibition at 1 µM in data set [2] came to 6.52%. As for `COc1cnc(N2CCNCC2)nc1Nc1cc(C)c(NC(=O)c2cccc(Br)n2)cc1C`, the IC50 in data set [1] was found to be 870 nM. In data set [2], the inhibition at 1 µM turned out to be 98.9%. For the same compound, the Activity entry in data set [3] is given as “Toxic”; in data set [5], 42.33%. Also, the inhibition at 2 µM in data set [4] is 6.93%. On to `COc1cnc(N2CCNCC2)nc1Nc1ccc(NC(=O)Cc2cccs2)cc1C(F)(F)F`, for which, in data set [2], the inhibition at 1 µM stood at 6.92%. The same measure, in the same setting: the same measure for `COc1cnc(N2CCNCC2)nc1Nc1ccc(NC(=O)c2cccc(Br)n2)cc1C`: 3.6%; for `COc1cnc(N2CCNCC2)nc1Nc1ccc(NC(=O)c2cccs2)cc1C(F)(F)F`: 4.93%. For the compound `COc1cc(Nc2nc(N3CCC(OC)CC3)ncc2OC)ccc1NC(=O)c1cccc(Br)n1`, the inhibition at 1 µM in data set [2] was found to be 7.54%. Consider `COc1cnc(N2CCNCC2)nc1Nc1ccc(NC(=O)c2cc(Br)ccn2)cc1C(F)(F)F`, for which the inhibition at 1 µM in data set [2] was found to be 12.3%. Still for that read-out and setting: the same measure for `COc1cc(Nc2ncnc(N3CCNCC3)n2)ccc1NC(=O)c1cccc(Br)n1`: 10.8%; for `COc1cc(Nc2nc(N3C[C@@H](C)O[C@@H](C)C3)ncc2OC)ccc1NC(=O)c1cccc(Br)n1`: 8.34%. Consider `COc1cc(Nc2nc(N3CCNCC3)ncc2OC)ccc1NC(=O)c1cccc(Br)n1`, for which the half-maximal inhibitory concentration (IC50) in data set [1] worked out at 770 nM. Also, the inhibition at 1 µM in data set [2] worked out at 99.3%. In addition, the Activity entry in data set [3] is “Non-Toxic”; in data set [5], 26.5%. Besides, in data set [4], the inhibition at 2 µM is 59.9%.

Consider `COc1cnc(N2CCNCC2)nc1Nc1ccc(NC(=O)c2ccco2)cc1C(F)(F)F`, for which, in data set [2], the inhibition at 1 µM stood at 1.86%.

As for `COc1cc(Nc2nc(N3CCOCC3)ncc2OC)ccc1NC(=O)c1cccc(Br)n1`, the inhibition at 1 µM in data set [2] was found to be 1.41%. On the same count and under the same terms, the same measure for `COc1nc(Nc2ccc(NC(=O)c3cccc(Br)n3)c(OC)c2)nc(N2CCNCC2)n1`: 4.27%. `COc1cnc(N2CCNCC2)nc1Nc1ccc(NC(=O)c2ccncc2)cc1C(F)(F)F`: in data set [2], the inhibition at 1 µM came to 9.77%. On the same count and under the same terms, the value for `COc1cc(Nc2ccnc(N3CCNCC3)n2)ccc1NC(=O)c1cccc(Br)n1` was 10.6%; that for `COc1cnc(N2CCNCC2)nc1Nc1ccc(NC(=O)c2cccc(Br)n2)cn1` was 9.96%; that for `COc1cnc(N2CCNCC2)nc1Nc1ccc(NC(=O)c2cccc(Br)n2)cc1OC(F)(F)F` was 84.8%. Still for that read-out and setting: the same measure for `COc1cnc(N2CCNCC2)nc1Nc1ccc(NC(=O)c2cccc(Br)n2)c(C)c1`: 23.3%. Take `COc1cnc(N2CCNCC2)nc1Nc1ccc(NC(=O)c2cccc(C)n2)cc1C(F)(F)F`: the inhibition at 1 µM in data set [2] was found to be 11.2%. Consider `COc1cc(Nc2cc(N3CCNCC3)nc(SC)n2)ccc1NC(=O)c1cccc(Br)n1`, for which the inhibition at 1 µM in data set [2] was found to be 11.1%. On the same count and under the same terms, the value for `COc1cnc(N2CCNCC2)nc1Nc1ccc(NC(=O)c2ncccc2Br)cc1C(F)(F)F` was 6.13%; that for `COc1cnc(N2CCNCC2)nc1Nc1ccc(NC(=O)c2cccnc2)cc1C(F)(F)F` was 4.54%; that for `COc1cnc(N2CCNCC2)nc1Nc1ccc(NC(=O)c2cccc(F)n2)cc1C(F)(F)F` was 4.48%.

Turning to `COc1cc(Nc2cc(N3CCNCC3)ncn2)ccc1NC(=O)c1cccc(Br)n1`, in data set [2], the inhibition at 1 µM was 11.5%.
